Measured values published in PMC9027111, “Morphing Natural Product Platensimycin via Heck, Sonogashira, and One-Pot Sonogashira/Cycloaddition Reactions to Produce Antibiotics with In Vivo Activity” (Antibiotics, 2022).
≈ marks a conversion by molar mass, not a printed value.

Tests used:
[1] = Metabolic stability assay in pooled human liver microsomes; type: in vitro ADME; conditions: pH 7.4, 37 °C, NADPH, read-out: Half-Life in Human Hepatic Microsomes
Description: Each compound was incubated in duplicate with pooled human liver microsomes at 37 °C. The tested compounds were pre-incubated with pooled human liver microsomes in phosphate buffer (pH 7.4) for 5 min in a shaking water bath at 37 °C. The reaction was initiated by adding a NADPH-generating system and incubated for 0, 15, 30, 45, and 60 min. The reaction was stopped by transferring the incubation mixture to CH3CN/MeOH. Samples were then mixed and centrifuged. Supernatants were used for HPLC–MS/MS analysis. Data were calculated as percent parent compounds remaining by assuming zero-minute time point peak area ratio (analyte/IS) as 100% and dividing remaining time point peak area ratios by the zero-minute time point peak area ratio. Data were subjected to fit a first-order decay model to calculate both the slope and half-life.

[2] = Plasma protein binding by equilibrium dialysis; type: in vitro ADME; conditions: 37 °C; for Plasma Protein Binding Bound %: 5 μM, 6 h; for fraction unbound at 6 h, 5 μM: plasma, read-out: Plasma Protein Binding Free %
Description: Equilibrium dialysis was used to determine the plasma protein binding. All of the test compounds were treated in triplicate by RED Rapid Equilibrium Dialysis Device (Thermo Scientific, Waltham, MA, USA). In brief, the initial compound concentration (5 μM) in the plasma chamber was first set, followed by the addition of phosphate buffered saline (PBS) to the receiver chamber. The Equilibrium Dialysis Device was allowed to shake for 6 h in a 37 °C incubator. Then, 25 μL solution was sampled from the plasma and PBS chambers, respectively, and they were diluted with either blank PBS or plasma to achieve a 1:1 ratio of plasma: PBS for all samples. The concentrations of the tested compounds in the plasma and PBS chambers were determined by LC–MS/MS. The fraction bound was calculated as ([plasma]—[PBS])/[plasma].

[3] = system: S. aureus ATCC 29213; experiment: MIC determination (LB agar dilution), S. aureus ATCC 29213; type: cell-based; conditions: Staphylococcus aureus, ATCC29213, at least two replicates
Description: (§1) All of the tested compounds were prepared to different concentrations with methanol, and 150 μL of the respective methanol solution was used to mix with 15 mL LB (Luria–Bertani) medium with 1% agar in each Petri dish. Linezolid and PTM were used as reference compounds for comparison. In vitro bioassay for compounds was carried out using clinical strains of S. aureus, E. coli, and Klebsilla pneumoniae. The bacteria were cultivated in LB medium and incubated for 16 h at 37 °C, 250 rpm. The resulting bacteria were diluted to approximate 0.25 at OD600, which were further diluted 10_4-fold. The diluted bacteria (2 μL) were added to Petri dish containing the respective compounds. The resulting Petri dishes were incubated for 16 h at 37 °C. The determination of MIC is the concentration of Petri dishes with no visible growth of bacteria.

[4] = system: MSSA 1; experiment: MIC determination (LB agar dilution), clinical MSSA strain 1; type: cell-based; conditions: Staphylococcus aureus, at least two replicates
Description: as §1

[5] = system: MSSA 2; experiment: MIC determination (LB agar dilution), clinical MSSA strain 2; type: cell-based; conditions: Staphylococcus aureus, at least two replicates
Description: as §1

[6] = system: MRSA 3; experiment: MIC determination (LB agar dilution), clinical MRSA strain 3; type: cell-based; conditions: Staphylococcus aureus, at least two replicates
Description: as §1

[7] = system: MRSA 4; experiment: MIC determination (LB agar dilution), clinical MRSA strain 4; type: cell-based; conditions: Staphylococcus aureus, at least two replicates
Description: as §1

MIC [3] [µg/mL] | MIC [4] [µg/mL] | MIC [5] [µg/mL] | MIC [6] [µg/mL] | MIC [7] [µg/mL] | SMILES | half-life [1] [h] | Plasma Protein Binding Bound % [2] [%] | fraction unbound at 6 h, 5 μM [2]
 |  |  |  |  | CC12CC34C=C(c5ccc6ccc7cccc8ccc5c6c78)C(=O)C(C)(CCC(=O)Nc5c(O)ccc(C(=O)O)c5O)C3C(CC1C4)O2 (stereo not shown) [1b, 6-pyrenyl PTM, reference compound] | 1.22 | 99.9 | 0.001
2 (≈ 3.81 µM) | 2 (≈ 3.81 µM) | 2 (≈ 3.81 µM) | 2 (≈ 3.81 µM) | 2 (≈ 3.81 µM) | COC(=O)C=CC1=CC23CC4CC(OC4(C)C2)C3C(C)(CCC(=O)Nc2c(O)ccc(C(=O)O)c2O)C1=O (stereo not shown) [A1] |  |  | 
16 (≈ 28.8 µM) | 16 (≈ 28.8 µM) | 16 (≈ 28.8 µM) | 16 (≈ 28.8 µM) | 16 (≈ 28.8 µM) | CC12CC34C=C(C=CC(=O)OCCO)C(=O)C(C)(CCC(=O)Nc5c(O)ccc(C(=O)O)c5O)C3C(CC1C4)O2 (stereo not shown) [A2] |  |  | 
1 (≈ 1.76 µM) | 1 (≈ 1.76 µM) | 1 (≈ 1.76 µM) | 1 (≈ 1.76 µM) | 1 (≈ 1.76 µM) | CCCCOC(=O)C=CC1=CC23CC4CC(OC4(C)C2)C3C(C)(CCC(=O)Nc2c(O)ccc(C(=O)O)c2O)C1=O (stereo not shown) [A3] |  |  | 
> 64 | > 64 | > 64 | > 64 | > 64 | CCCCCCCCCCCCCCCCCCOC(=O)C=CC1=CC23CC4CC(OC4(C)C2)C3C(C)(CCC(=O)Nc2c(O)ccc(C(=O)O)c2O)C1=O (stereo not shown) [A5] | 1.27 | 99.2 | 0.008
64 (≈ 125 µM) | 64 (≈ 125 µM) | 64 (≈ 125 µM) | 64 (≈ 125 µM) | 64 (≈ 125 µM) | CC12CC34C=C(C=CC(N)=O)C(=O)C(C)(CCC(=O)Nc5c(O)ccc(C(=O)O)c5O)C3C(CC1C4)O2 (stereo not shown) [A6] |  |  | 
16 (≈ 29.7 µM) | 16 (≈ 29.7 µM) | 16 (≈ 29.7 µM) | 16 (≈ 29.7 µM) | 16 (≈ 29.7 µM) | CN(C)C(=O)C=CC1=CC23CC4CC(OC4(C)C2)C3C(C)(CCC(=O)Nc2c(O)ccc(C(=O)O)c2O)C1=O (stereo not shown) [A7] |  |  | 
32 (≈ 57.9 µM) | 32 (≈ 57.9 µM) | 32 (≈ 57.9 µM) | 32 (≈ 57.9 µM) | 32 (≈ 57.9 µM) | CC(C)NC(=O)C=CC1=CC23CC4CC(OC4(C)C2)C3C(C)(CCC(=O)Nc2c(O)ccc(C(=O)O)c2O)C1=O (stereo not shown) [A8] |  |  | 
8 (≈ 14.1 µM) | 8 (≈ 14.1 µM) | 8 (≈ 14.1 µM) | 8 (≈ 14.1 µM) | 8 (≈ 14.1 µM) | CC(C)(C)NC(=O)C=CC1=CC23CC4CC(OC4(C)C2)C3C(C)(CCC(=O)Nc2c(O)ccc(C(=O)O)c2O)C1=O (stereo not shown) [A9] |  |  | 
8 (≈ 17.2 µM) | 8 (≈ 17.2 µM) | 8 (≈ 17.2 µM) | 8 (≈ 17.2 µM) | 8 (≈ 17.2 µM) | C#CC1=CC23CC4CC(OC4(C)C2)C3C(C)(CCC(=O)Nc2c(O)ccc(C(=O)O)c2O)C1=O (stereo not shown) [B1] |  |  | 
1 (≈ 1.92 µM) | 1 (≈ 1.92 µM) | 1 (≈ 1.92 µM) | 1 (≈ 1.92 µM) | 1 (≈ 1.92 µM) | CCCCC#CC1=CC23CC4CC(OC4(C)C2)C3C(C)(CCC(=O)Nc2c(O)ccc(C(=O)O)c2O)C1=O (stereo not shown) [B2] |  |  | 
1 (≈ 1.92 µM) | 1 (≈ 1.92 µM) | 1 (≈ 1.92 µM) | 1 (≈ 1.92 µM) | 1 (≈ 1.92 µM) | CC(C)(C)C#CC1=CC23CC4CC(OC4(C)C2)C3C(C)(CCC(=O)Nc2c(O)ccc(C(=O)O)c2O)C1=O (stereo not shown) [B3] |  |  | 
1 (≈ 1.98 µM) | 1 (≈ 1.98 µM) | 1 (≈ 1.98 µM) | 1 (≈ 1.98 µM) | 1 (≈ 1.98 µM) | CC12CC34C=C(C#CC5CC5)C(=O)C(C)(CCC(=O)Nc5c(O)ccc(C(=O)O)c5O)C3C(CC1C4)O2 (stereo not shown) [B4] |  |  | 
1 (≈ 1.87 µM) | 1 (≈ 1.87 µM) | 1 (≈ 1.87 µM) | 1 (≈ 1.87 µM) | 1 (≈ 1.87 µM) | CCCCCC#CC1=CC23CC4CC(OC4(C)C2)C3C(C)(CCC(=O)Nc2c(O)ccc(C(=O)O)c2O)C1=O (stereo not shown) [B5] |  |  | 
4 (≈ 7.1 µM) | 4 (≈ 7.1 µM) | 4 (≈ 7.1 µM) | 4 (≈ 7.1 µM) | 4 (≈ 7.1 µM) | CC12CC34C=C(C#CC5(O)CCCCC5)C(=O)C(C)(CCC(=O)Nc5c(O)ccc(C(=O)O)c5O)C3C(CC1C4)O2 (stereo not shown) [B6] |  |  | 
